Positions of bridges follow the written chain, without caps; N, C: chain ends. Residues, ends and D or L forms follow the SMILES beside them.
Assays:
[1] = biological target: T1, human α9α10 nAChR (Homo sapiens, UniProt Q9GZZ6+Q9UGM1); assay: cell-based
T1 construct: expressed in transfected cells; host or cells: oocytes

[2] = biological target: T2, α9α10 nAChR (Rattus norvegicus, UniProt P43144+Q9JLB5); assay: cell-based
T2 construct: expressed in transfected cells; host or cells: oocytes
T2 sequence (P43144 26-479 limits assumed): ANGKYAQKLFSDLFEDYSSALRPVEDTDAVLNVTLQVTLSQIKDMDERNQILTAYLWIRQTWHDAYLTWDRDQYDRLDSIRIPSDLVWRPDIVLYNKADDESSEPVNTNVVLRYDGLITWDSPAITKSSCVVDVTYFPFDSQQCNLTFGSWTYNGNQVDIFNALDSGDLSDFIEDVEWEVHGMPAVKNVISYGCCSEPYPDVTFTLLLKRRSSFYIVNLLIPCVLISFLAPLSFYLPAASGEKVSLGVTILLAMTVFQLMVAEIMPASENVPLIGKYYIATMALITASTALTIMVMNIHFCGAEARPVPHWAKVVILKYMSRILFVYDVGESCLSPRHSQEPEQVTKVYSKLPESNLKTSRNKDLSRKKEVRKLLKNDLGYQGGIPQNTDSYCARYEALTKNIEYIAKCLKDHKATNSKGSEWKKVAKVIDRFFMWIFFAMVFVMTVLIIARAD
T2 sequence (Q9JLB5 25-447 limits assumed): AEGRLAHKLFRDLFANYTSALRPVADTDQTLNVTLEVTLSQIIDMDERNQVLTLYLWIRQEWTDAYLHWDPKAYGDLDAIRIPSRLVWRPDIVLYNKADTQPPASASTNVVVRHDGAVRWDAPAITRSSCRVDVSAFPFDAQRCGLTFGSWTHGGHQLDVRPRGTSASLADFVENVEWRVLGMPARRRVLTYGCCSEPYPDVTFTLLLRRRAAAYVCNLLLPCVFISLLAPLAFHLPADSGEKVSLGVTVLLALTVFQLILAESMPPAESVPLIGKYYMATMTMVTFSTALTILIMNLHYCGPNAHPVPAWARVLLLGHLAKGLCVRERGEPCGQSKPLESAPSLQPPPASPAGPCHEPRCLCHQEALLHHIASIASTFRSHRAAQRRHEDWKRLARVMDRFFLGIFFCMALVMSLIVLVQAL

T1 sequence (Q9UGM1 26-479 limits assumed): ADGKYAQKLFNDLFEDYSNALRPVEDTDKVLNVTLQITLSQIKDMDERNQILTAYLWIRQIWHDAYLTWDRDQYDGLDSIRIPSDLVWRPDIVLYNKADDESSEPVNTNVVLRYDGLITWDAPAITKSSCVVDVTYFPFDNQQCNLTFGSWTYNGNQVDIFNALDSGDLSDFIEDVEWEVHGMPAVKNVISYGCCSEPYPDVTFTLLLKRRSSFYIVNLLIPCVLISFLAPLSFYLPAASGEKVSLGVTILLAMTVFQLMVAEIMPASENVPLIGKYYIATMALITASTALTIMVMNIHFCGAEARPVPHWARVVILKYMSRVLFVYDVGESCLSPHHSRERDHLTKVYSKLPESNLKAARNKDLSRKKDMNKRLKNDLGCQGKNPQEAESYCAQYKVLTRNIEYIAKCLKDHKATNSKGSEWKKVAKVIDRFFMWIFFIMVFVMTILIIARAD
T1 sequence (Q9GZZ6 25-450): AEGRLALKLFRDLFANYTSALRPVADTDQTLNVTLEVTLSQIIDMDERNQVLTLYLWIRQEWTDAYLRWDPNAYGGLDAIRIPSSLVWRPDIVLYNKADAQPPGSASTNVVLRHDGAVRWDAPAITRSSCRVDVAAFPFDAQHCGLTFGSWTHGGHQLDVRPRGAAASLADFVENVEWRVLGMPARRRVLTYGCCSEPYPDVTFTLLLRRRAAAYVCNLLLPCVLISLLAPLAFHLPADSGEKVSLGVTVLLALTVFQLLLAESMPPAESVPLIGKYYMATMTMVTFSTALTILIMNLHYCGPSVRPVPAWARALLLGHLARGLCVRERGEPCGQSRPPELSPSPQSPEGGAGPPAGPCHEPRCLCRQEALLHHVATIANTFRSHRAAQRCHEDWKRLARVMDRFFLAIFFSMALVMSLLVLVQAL

| SMILES | IC50 [1] | IC50 [2] |
| --- | --- | --- |
| C[C@@H](O)[C@@H]1NC(=O)[C@@H]2CSSC[C@@H](C(=O)N[C@@H](CCCNC(=N)N)C(=O)O)NC(=O)[C@H](CCCNC(=N)N)NC(=O)[C@H](Cc3ccc(O)cc3)NC(=O)[C@H](CCCNC(=N)N)NC(=O)[C@H](CSSC[C@H](NC(=O)CN)C(=O)N2)NC(=O)[C@H](CCCNC(=N)N)NC(=O)[C@@H]2CCCN2C(=O)[C@H](CC(=O)O)NC1=O [SEQ ID NO:3] | 281 nM |  |
| N=C(N)NCCC[C@H](NC(=O)[C@@H]1CSSC[C@@H]2NC(=O)[C@@H](NC(=O)CN)CSSC[C@H](NC(=O)[C@H](CCCNC(=N)N)NC(=O)[C@@H]3CCCN3C(=O)[C@H](CC(=O)O)NC(=O)[C@H](CO)NC2=O)C(=O)N[C@@H](CCCNC(N)=O)C(=O)N[C@@H](Cc2ccc(O)cc2)C(=O)N[C@@H](CCCNC(=N)N)C(=O)N1)C(=O)O [SEQ ID NO:9] | 416 nM | 2.4 nM |
| N=C(N)NCCCC[C@@H]1NC(=O)[C@@H]2CSSC[C@H](NC(=O)CN)C(=O)N[C@@H](CSSC[C@@H](C(=O)N[C@@H](CCCNC(=N)N)C(=O)O)NC(=O)[C@H](CCCNC(=N)N)NC(=O)[C@H](Cc3ccc(O)cc3)NC1=O)C(=O)N[C@@H](CO)C(=O)N[C@@H](CC(=O)O)C(=O)N1CCC[C@H]1C(=O)N[C@@H](CCCNC(=N)N)C(=O)N2 [SEQ ID NO:11] | > 1000 nM | > 1000 nM |
| N=C(N)NCCC[C@H](NC(=O)[C@@H]1CSSC[C@@H]2NC(=O)[C@@H](NC(=O)CN)CSSC[C@H](NC(=O)[C@H](CCCNC(=N)N)NC(=O)[C@@H]3CCCN3C(=O)[C@H](CC(=O)O)NC(=O)[C@H](CO)NC2=O)C(=O)N[C@@H](CCCCN)C(=O)N[C@@H](Cc2ccc(O)cc2)C(=O)N[C@@H](CCCNC(=N)N)C(=O)N1)C(=O)O [SEQ ID NO:14] |  | > 1000 nM |
| N=C(N)NCCC[C@H](NC(=O)[C@@H]1CSSC[C@@H]2NC(=O)[C@@H](NC(=O)CN)CSSC[C@H](NC(=O)[C@H](CCCNC(=N)N)NC(=O)[C@@H]3CCCN3C(=O)[C@H](CC(=O)O)NC(=O)[C@H](CO)NC2=O)C(=O)N[C@@H](CCCNC(=N)N)C(=O)N[C@@H](Cc2c[nH]c3ccccc23)C(=O)N[C@@H](CCCNC(=N)N)C(=O)N1)C(=O)O [SEQ ID NO:16] (H-GCCSDPRCRWRCR-OH; disulfide 2-8, 3-12) | 268 nM | 11 nM |
| N=C(N)NCCC[C@H](NC(=O)[C@@H]1CSSC[C@@H]2NC(=O)[C@@H](NC(=O)CN)CSSC[C@H](NC(=O)[C@H](CCCNC(=N)N)NC(=O)[C@@H]3CCCN3C(=O)[C@H](CC(=O)O)NC(=O)[C@H](CO)NC2=O)C(=O)N[C@@H](CCCNC(=N)N)C(=O)N[C@@H](Cc2ccccc2)C(=O)N[C@@H](CCCNC(=N)N)C(=O)N1)C(=O)O [SEQ ID NO:17] (H-GCCSDPRCRFRCR-OH; disulfide 2-8, 3-12) | > 1000 nM | 8 nM |
| C[C@@H]1NC(=O)[C@@H]2CSSC[C@@H](C(=O)N[C@@H](CCCNC(=N)N)C(=O)O)NC(=O)[C@H](CCCNC(=N)N)NC(=O)[C@H](Cc3ccc(O)cc3)NC(=O)[C@H](CCCNC(=N)N)NC(=O)[C@H](CSSC[C@H](NC(=O)CN)C(=O)N2)NC(=O)[C@H](CCCNC(=N)N)NC(=O)[C@@H]2CCCN2C(=O)[C@H](CC(=O)O)NC1=O [SEQ ID NO:20] (H-GCCADPRCRYRCR-OH; disulfide 2-8, 3-12) | > 1000 nM | 14.5 nM |
| N=C(N)NCCC[C@@H]1NC(=O)[C@H](Cc2ccc(O)cc2)NC(=O)[C@H](CCCNC(=N)N)NC(=O)[C@@H]2CSSC[C@H](NC(=O)CN)C(=O)N[C@@H](CSSC[C@@H](C(N)=O)NC1=O)C(=O)N[C@@H](CO)C(=O)N[C@@H](CC(=O)O)C(=O)N1CCC[C@H]1C(=O)N[C@@H](CCCNC(=N)N)C(=O)N2 [SEQ ID NO:21] (H-GCCSDPRCRYRC-NH2; disulfide 2-8, 3-12) |  | 7.8 nM |
| N=C(N)NCCC[C@H](NC(=O)[C@@H]1CSSC[C@@H]2NC(=O)[C@@H](NC(=O)CN)CSSC[C@H](NC(=O)[C@H](CCCNC(=N)N)NC(=O)[C@@H]3CCCN3C(=O)[C@H](CCC(=O)O)NC(=O)[C@H](CO)NC2=O)C(=O)N[C@@H](CCCNC(=N)N)C(=O)N[C@@H](Cc2ccc(O)cc2)C(=O)N[C@@H](CCCNC(=N)N)C(=O)N1)C(=O)O [SEQ ID NO:22] (H-GCCSEPRCRYRCR-OH; disulfide 2-8, 3-12) |  | 6600 nM |
| CC(C)[C@@H]1NC(=O)[C@H](CC(=O)O)NC(=O)[C@H](CO)NC(=O)[C@@H]2CSSC[C@@H](C(=O)N[C@@H](CCCNC(=N)N)C(=O)O)NC(=O)[C@H](CCCNC(=N)N)NC(=O)[C@H](Cc3ccc(O)cc3)NC(=O)[C@H](CCCNC(=N)N)NC(=O)[C@H](CSSC[C@H](NC(=O)CN)C(=O)N2)NC(=O)[C@H](CCCNC(=N)N)NC1=O [SEQ ID NO:23] (H-GCCSDVRCRYRCR-OH; disulfide 2-8, 3-12) |  | 4100 nM |
| C[C@@H]1NC(=O)[C@@H]2CSSC[C@H](NC(=O)CN)C(=O)N[C@@H](CSSC[C@@H](C(=O)N[C@@H](CCCNC(=N)N)C(=O)O)NC(=O)[C@H](CCCNC(=N)N)NC(=O)[C@H](Cc3ccc(O)cc3)NC1=O)C(=O)N[C@@H](CO)C(=O)N[C@@H](CC(=O)O)C(=O)N1CCC[C@H]1C(=O)N[C@@H](CCCNC(=N)N)C(=O)N2 [SEQ ID NO:24] (H-GCCSDPRCAYRCR-OH; disulfide 2-8, 3-12) |  | 13000 nM |
| C[C@@H]1NC(=O)[C@@H]2CCCN2C(=O)[C@H](Cc2c[nH]cn2)NC(=O)[C@H](CO)NC(=O)[C@@H]2CSSC[C@@H](C(=O)N[C@@H](CCCNC(=N)N)C(=O)O)NC(=O)[C@H](CCCNC(=N)N)NC(=O)[C@H](Cc3ccc(O)cc3)NC(=O)[C@H](CCCNC(=N)N)NC(=O)[C@H](CSSC[C@H](NC(=O)CN)C(=O)N2)NC1=O [SEQ ID NO:25] (H-GCCSHPACRYRCR-OH; disulfide 2-8, 3-12) |  | > 10000 nM |
| N=C(N)NCCC[C@H](NC(=O)[C@@H]1CSSC[C@@H]2NC(=O)[C@@H](NC(=O)CN)CSSC[C@H](NC(=O)[C@H](CCCNC(=N)N)NC(=O)[C@@H]3CCCN3C(=O)[C@H](CC(=O)O)NC(=O)[C@H](CO)NC2=O)C(=O)N[C@@H](CCCNC(=N)N)C(=O)N[C@@H](Cc2ccc(O)cc2)C(=O)N[C@@H](CCC(N)=O)C(=O)N1)C(=O)O [SEQ ID NO:32] (H-GCCSDPRCRYQCR-OH; disulfide 2-8, 3-12) | 202 nM |  |
| N=C(N)NCCC[C@H](NC(=O)[C@@H]1CSSC[C@@H]2NC(=O)[C@@H](NC(=O)CN)CSSC[C@H](NC(=O)[C@H](CCCNC(=N)N)NC(=O)[C@@H]3CCCN3C(=O)[C@H](CC(=O)O)NC(=O)[C@H](Cc3ccc(O)cc3)NC2=O)C(=O)N[C@@H](CCCNC(=N)N)C(=O)N[C@@H](Cc2ccc(O)cc2)C(=O)N[C@@H](CCCNC(=N)N)C(=O)N1)C(=O)O [SEQ ID NO:34] (H-GCCYDPRCRYRCR-OH; disulfide 2-8, 3-12) | > 1000 nM |  |
| N=C(N)NCCC[C@H](NC(=O)[C@@H]1CSSC[C@@H]2NC(=O)[C@@H](NC(=O)CN)CSSC[C@H](NC(=O)[C@H](CCCNC(=N)N)NC(=O)[C@@H]3CCCN3C(=O)[C@H](CC(=O)O)NC(=O)[C@H](CO)NC2=O)C(=O)N[C@@H](CCCNC(=N)N)C(=O)N[C@@H](Cc2ccc(O)cc2)C(=O)N[C@@H](Cc2c[nH]cn2)C(=O)N1)C(=O)O [SEQ ID NO:36] (H-GCCSDPRCRYHCR-OH; disulfide 2-8, 3-12) | > 1000 nM |  |
